For 1 compound, IC50 results are on record in publication PMC9146161, “Novel Thienyl-Based Tyrosine Kinase Inhibitors for the Treatment of Hepatocellular Carcinoma” (Journal of Personalized Medicine, 2022).

For this test, the target named is T1, VEGFR-2 (Homo sapiens, UniProt P35968).
T1 construct: gene KDR
As to the kind of experiment: cell-free enzymatic kinase assay (Eurofins KinaseProfiler), dose-response […]. It is filed as biochemical.

SMILES strings stand for the structures.

T1 sequence (P35968 20-1356): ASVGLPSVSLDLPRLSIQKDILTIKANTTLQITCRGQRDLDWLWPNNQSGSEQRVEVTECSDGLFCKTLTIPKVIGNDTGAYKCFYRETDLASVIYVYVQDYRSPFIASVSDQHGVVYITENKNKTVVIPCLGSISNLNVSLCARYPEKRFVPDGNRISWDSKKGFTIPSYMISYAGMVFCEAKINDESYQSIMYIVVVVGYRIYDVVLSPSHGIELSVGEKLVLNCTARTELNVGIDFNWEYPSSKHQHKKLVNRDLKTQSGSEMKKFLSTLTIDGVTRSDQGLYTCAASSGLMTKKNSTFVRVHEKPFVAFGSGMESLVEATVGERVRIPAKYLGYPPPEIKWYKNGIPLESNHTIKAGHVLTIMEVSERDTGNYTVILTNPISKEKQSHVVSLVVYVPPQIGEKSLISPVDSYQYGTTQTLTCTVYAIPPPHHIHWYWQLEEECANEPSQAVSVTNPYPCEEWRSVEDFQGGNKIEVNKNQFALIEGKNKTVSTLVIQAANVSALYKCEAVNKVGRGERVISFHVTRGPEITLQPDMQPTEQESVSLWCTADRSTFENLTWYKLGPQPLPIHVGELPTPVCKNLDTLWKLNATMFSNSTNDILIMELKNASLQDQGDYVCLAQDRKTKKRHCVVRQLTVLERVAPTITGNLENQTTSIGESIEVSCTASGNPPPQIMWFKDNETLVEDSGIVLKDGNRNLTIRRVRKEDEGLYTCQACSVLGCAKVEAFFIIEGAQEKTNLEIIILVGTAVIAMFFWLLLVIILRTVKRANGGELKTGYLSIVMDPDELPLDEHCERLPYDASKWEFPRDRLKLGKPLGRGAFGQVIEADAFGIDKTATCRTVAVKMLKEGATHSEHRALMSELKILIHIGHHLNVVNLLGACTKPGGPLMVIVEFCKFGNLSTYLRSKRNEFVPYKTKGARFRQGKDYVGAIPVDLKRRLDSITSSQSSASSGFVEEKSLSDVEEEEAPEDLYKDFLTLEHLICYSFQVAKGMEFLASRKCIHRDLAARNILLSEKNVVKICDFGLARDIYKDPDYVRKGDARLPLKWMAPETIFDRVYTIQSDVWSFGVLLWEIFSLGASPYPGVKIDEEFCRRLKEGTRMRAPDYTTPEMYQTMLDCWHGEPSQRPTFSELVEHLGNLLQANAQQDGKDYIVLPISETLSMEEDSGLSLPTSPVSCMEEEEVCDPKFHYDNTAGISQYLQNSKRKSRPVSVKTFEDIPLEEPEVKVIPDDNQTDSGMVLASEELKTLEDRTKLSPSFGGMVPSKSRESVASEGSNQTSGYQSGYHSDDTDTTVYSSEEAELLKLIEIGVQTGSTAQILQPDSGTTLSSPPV

By IC50 is commonly meant the concentration that inhibits the measured activity by half. Higher therefore signals a need for much substance. In turn, `COc1ccc(/C=C(\C#N)c2cccs2)cc1O` [Thio-Iva] had an IC50 of 3.31 µM.
